Laboratory results as given in ChEMBL document CHEMBL3217537, “The importance of solvation in the design of ligands targeting membrane proteins” (Medchemcomm, 2011).

Biological target: 5-hydroxytryptamine receptor 4 (Rattus norvegicus, UniProt Q62758)
Test: Displacement of [3H]GR113808 from 5-HT4 receptor in rat striatal membranes after 30 mins by liquid scintillation spectrometric analysis
Assay type: cell membranes, Striatum, Membrane

Sequence of 5-hydroxytryptamine receptor 4 (Q62758 whole entry): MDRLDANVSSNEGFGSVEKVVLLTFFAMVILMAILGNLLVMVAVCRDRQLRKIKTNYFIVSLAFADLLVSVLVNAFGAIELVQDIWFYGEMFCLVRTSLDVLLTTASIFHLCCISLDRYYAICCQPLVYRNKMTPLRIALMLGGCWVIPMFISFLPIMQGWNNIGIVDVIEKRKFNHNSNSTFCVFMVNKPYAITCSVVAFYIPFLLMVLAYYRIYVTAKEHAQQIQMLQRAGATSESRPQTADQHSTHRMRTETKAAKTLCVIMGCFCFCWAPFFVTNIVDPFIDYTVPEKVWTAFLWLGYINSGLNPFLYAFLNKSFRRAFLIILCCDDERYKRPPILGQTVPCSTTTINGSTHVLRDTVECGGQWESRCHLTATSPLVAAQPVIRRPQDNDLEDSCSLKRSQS

Question: With CCCCN1CCC(CNC(=S)c2cccc3[nH]cnc23)CC1 as the molecule, how does the Ki read?
Answer: The Ki was 0.15 nM.

Question: How did the Ki turn out when CCCCN1CCC(CNC(=S)c2cc(Cl)cc3[nH]cnc23)CC1 was run?
Answer: Its Ki is 0.081 nM.
